Assay results taken from patent US20190144401A1, “IMINOSYDNONE DERIVATIVES FOR CONJUGATION AND RELEASE OF COMPOUNDS OF INTEREST” (UNIVERSITE DE STRASBOURG, priority 2014, published 2019).

Columns and labels:
[1] = Kinetics of the coupling reaction of iminosydnones with BCN (HPLC monitoring); format: physicochemical; settings: 100 μM iminosydnone, 150 μM BCN, PBS 0.1M (pH 7.4) containing 10% DMSO
Procedure: (§1) The kinetics of the coupling reaction of different iminosydnones with two cyclic alkynes was studied, according to the following scheme.
(§2) Reactions of iminosydnones with BCN (Bicyclononyne) or TMTH were carried out in PBS/DMSO (9:1) mixtures at 100 μM concentration of sydnones and 150 μM concentration of BCN or TMTH using the following procedure:
(§3) To 900 μL of phosphate buffered saline (PBS, 100 mM) was added 87.5 μL of DMSO, 10 μL of the solution of benzamide (internal standard, 100 mM in DMSO), 1 μL of the solution of iminosydnone (100 mM in DMSO) and 1.5 μL of the solution of BCN or TMTH (100 mM in DMSO). The reaction mixture was injected in HPLC every 30 min and the conversion was followed by measuring the normalized sydnone peak area.
(§4) Second order reaction rate was determined by plotting ln([A]/[B])/([A]−[B]) versus time and analyzing by linear regression (Equation). Second order rate constant corresponds to the determined slope.
(§5) Equation. [A]—concentration of iminosydnones (M); [B]—concentration of BCN (M); t—reaction time (sec); k—reaction rate (M^−1·sec^−1)

[2] = Kinetics of the coupling reaction of iminosydnones with TMTH (HPLC monitoring); format: physicochemical; settings: 100 μM iminosydnone, 150 μM TMTH, PBS 0.1M (pH 7.4) containing 10% DMSO
Procedure: as §1, §2, §3, §4, §5

| SMILES | K (BCN) [1] | K (TMTH) [2] |
| --- | --- | --- |
| Cc1ccc(-[n+]2cc([N-]C(=O)CCc3ccccc3)on2)cc1 [Im4] | 0.034 M⁻¹ s⁻¹ | – |
| Cc1ccc(-[n+]2cc([N-]C(=O)Cc3ccccc3)on2)cc1 [Im3] | 0.004 M⁻¹ s⁻¹ | – |
| Cc1ccc(-[n+]2cc([N-]C(=O)NCc3ccccc3)on2)cc1 [Im9] | 0.004 M⁻¹ s⁻¹ | – |
| Cc1ccc(-[n+]2noc([N-]C(=O)NCc3ccccc3)c2Br)cc1 [Im10] | 0.060 M⁻¹ s⁻¹ | – |
| CC(=O)[N-]c1c[n+](-c2ccccc2)no1 [Im2] | 0.002 M⁻¹ s⁻¹ | 2.2 M⁻¹ s⁻¹ |
| [NH-]c1c[n+](-c2ccccc2)no1 [Im1] | no reaction | – |
| Cc1ccc(NC(=O)[N-]c2c[n+](-c3ccc(C(=O)O)cc3)no2)cc1 [Im7] | 0.108 M⁻¹ s⁻¹ | 61.2 M⁻¹ s⁻¹ |
| Cc1ccc(-[n+]2cc([N-]C(=O)OCc3ccccc3)on2)cc1 [Im11] | 0.026 M⁻¹ s⁻¹ | – |
| Cc1ccc(-[n+]2noc([N-]C(=O)OCc3ccccc3)c2Br)cc1 [Im12] | 0.150 M⁻¹ s⁻¹ | – |
| CCOC(=O)c1ccc(NC(=O)[N-]c2c[n+](-c3ccc(O)cc3)no2)cc1 [Im8] | 0.008 M⁻¹ s⁻¹ | 2.5 M⁻¹ s⁻¹ |
| Cc1ccc(NC(=O)[N-]c2c[n+](-c3ccc(O)cc3)no2)cc1 [Im6] | 0.008 M⁻¹ s⁻¹ | 4.1 M⁻¹ s⁻¹ |
| Cc1ccc(NC(=O)[N-]c2c[n+](-c3ccccc3)no2)cc1 [Im5] | 0.069 M⁻¹ s⁻¹ | 43.1 M⁻¹ s⁻¹ |
| N#CC#Cc1ccc(NC(=O)[N-]c2c[n+](-c3ccc(C(=O)O)cc3)no2)cc1 [Im14, (3-(4-carboxyphenyl)-1,2,3-oxadiazol-3-ium-5-yl)((4-(cyanoethynyl)phenyl)carbamoyl)amide] | 0.132 M⁻¹ s⁻¹ | – |
